Drawing on patent publication USRE47193E1, “Selectively substituted quinoline compounds” (EISAI R&D MANAGEMENT CO., LTD., priority 2013, dated 2019), this text covers IC50 for two molecules.

For assay [1], the system named is T1, TLR7/8.
T1 construct: other: human PBMC; ligand SL4-Ig; individual donors 1-6; average of donors; ligand RNA40-DOTAP; individual donors; ligand R848; ligand
The assay is described as follows: Subsequent human PBMC assay, various TLR7/8 ligands, IL-6 and IFN-α blockade. It is filed as cell-based. As for the experimental part:
(§1) Human PBMC Cell-Based Assay. Human peripheral blood mononuclear cells (PBMC) were isolated from freshly-drawn heparinized (10 USP units/ml, Hospira, Lakeforest, Ill.) healthy donor whole blood by density gradient (Histopaque® 1077, Sigma, Inc., St. Louis, Mo.). Briefly, 25 ml blood was diluted with 15 ml PBS (without Ca^2+, Mg^2+) in a 50 ml conical tube, and 12 ml Histopaque was underlaid using a spinal needle. Tubes were centrifuged for 45 minutes at 1200 rpm (350×g), and PBMC were collected from the buffy coat. Cells were then washed twice in PBS, and red blood cells were lysed by suspension in 5 ml ammonium chloride solution (1× Red Blood Cell Lysis Buffer, eBioscience) for 5 minutes at room temperature. After a final wash in PBS, PBMC were resuspended at a final concentration of 2×10^6/ml in RPMI-1640 media with L-glutamine (Invitrogen) and supplemented with 25 mM HEPES (Mediatech, Inc, Manassas Va.), 10% fetal bovine serum (HyClone, Logan, Utah), and Penicillin-Streptomycin-Glutamine (Mediatech) and plated at 100 ul/well (2×10^5 cells/well) in tissue culture treated 96-well plates (Falcon).
(§2) Antagonist compounds solubilized and serial diluted in 100% DMSO were added in triplicate to cells to yield a final concentration of 0.1% DMSO (v/v). Hydroxychloroquine (Acros Organics) solubilized and serial diluted in PBS was added in triplicate to cells. PBMC were incubated with antagonist compounds or HCQ for 30 minutes at 37° C., 5% CO2 before adding various TLR agonist reagents in 100 ul complete media per well as follows (final concentrations indicated): R848 (Resiquimod; GLSynthesis, Worcester, Mass.) at 1 uM for TLR7 and TLR8, LPS (Sigma) at 10 ng/ml for TLR4, and CpG-2216 (InvivoGen) at 5 ug/ml for TLR9. To prepare a TLR7/8 agonist that mimics RNA-containing auto-antibody immune complexes in lupus patients, a 26-mer RNA with a sequence derived from human U1 snRNA stem loop IV [(sequence: […]-[…] (SEQ ID NO: 2) with phosphorothioate backbone] was synthesized (Dharmacon, Inc., Lafayette, Colo.), which has been shown previously to be a potent TLR7 and TLR8 agonist. This RNA molecule was diluted to 2.5 μM in serum-free RPMI, and mouse anti-human single stranded DNA monoclonal antibody (MAB3034, Millipore, Inc., Billerica, Mass.), which also cross-reacts with RNA, was added at a 1:25 dilution or at 1 ug/ml. The resulting “RNA-Ig” stimulus was incubated at room temperature for 15-30 minutes before adding to cells. PBMC were incubated with the various TLR agonists for 20 hours at 37° C., 5% CO2. Cell culture supernatants were collected, and levels of various human cytokines were assessed as indicated by standard ELISA procedure according to the manufacturer's recommended protocol (BD Biosciences, Inc., San Diego, Calif.). In a subsequent assay (Table 6) the ability of ER-899742 to block stimulation of normal PBMC by various TLR7/8 ligands, but not DNA-mediated activation of TLR9, was examined. In this assay cells were plated at 1×10^5 cells/well in 100 ul in 96-well plates.

Assay [2] deals with T2, TLR7/8.
T2 construct: other: human PBMC; ligand SL4-Ig; individual donors 1-6; average of donors; ligand RNA40-DOTAP; individual donors; ligand R848; ligand R848
The assay is described as above. It counts as cell-based. As for the experimental part: as §1, §2

Setting [3] is: read-out: IC50 IFN-α Ave., ligand R848, average of donors.
The mark [4] stands for this setting: read-out: IC50 IFN-α Ave., ligand RNA40-DOTAP, average of donors.
[5] abbreviates: read-out: IC50 IFN-α Ave., ligand SL4-Ig, average of donors.
Where [6] appears, read: read-out: IC50 IL-6 Ave., ligand R848, average of donors.
Where [7] appears, read: read-out: IC50 IL-6 Ave., ligand RNA40-DOTAP, average of donors.
Setting [8] is: read-out: IC50 IL-6 Ave., ligand SL4-Ig, average of donors.

“And” between values parts separate entries of the source, which are not always exact repeats. Identical values can stand only once. Like-named read-outs stand apart in the source and are kept apart here.

Consider `C[C@@H]1CN(c2ccc(C#N)c3ncccc23)C[C@H](C(=O)N[C@H]2CNC[C@H]2F)O1.Cl` [ER-899742, (2R,6R)-4-(8-cyanoquinolin-5-yl)-N-[(3S,4R)-4-fluoropyrrolidin-3-yl]-6-methylmorpholine-2-carboxamide hydrochloride], for which the 50% inhibitory concentration (IC50) with TLR7/8 [1] (setting [3]) was 11 nM; in the assay on TLR7/8 [1] (setting [4]) it was 13.9 nM; in the assay on TLR7/8 [1] (setting [5]) it was 1.4 nM; in the assay on TLR7/8 [1] (read-out: IC50 IFN-α, ligand R848, individual donors, hydrochloride) it was 12 nM and 11 nM and 10 nM; with TLR7/8 [1] (read-out: IC50 IFN-α, ligand RNA40-DOTAP, individual donors, hydrochloride), 9.6 nM and 18 nM and 11 nM and 17 nM; in the assay with TLR7/8 [1] (read-out: IC50 IFN-α, ligand SL4-Ig, individual donors 1-6, hydrochloride), 2.2 nM and 0.5 nM. Besides, the 50% inhibitory concentration (IC50) was 6.5 nM and 7 nM and 4.9 nM and 5.5 nM and 8.1 nM and 3.4 nM with TLR7/8 [2] (read-out: IC50 IL-6, ligand R848, individual donors, hydrochloride); 23 nM and 54 nM and 33 nM and 29 nM and 14 nM and 35 nM with TLR7/8 [2] (read-out: IC50 IL-6, ligand RNA40-DOTAP, individual donors, hydrochloride); 3.2 nM and 4.3 nM and 2.5 nM and 3.3 nM and 7.7 nM in the assay with TLR7/8 [2] (read-out: IC50 IL-6, ligand SL4-Ig, individual donors 1-6, hydrochloride); 5.9 nM in the assay on TLR7/8 [2] (setting [6]); 31.3 nM in the assay on TLR7/8 [2] (setting [7]); 4.2 nM in the assay on TLR7/8 [2] (setting [8]).
Turning to `CCN(CCO)CCCC(C)Nc1ccnc2cc(Cl)ccc12` (stereo not drawn) [HCQ, hydroxychloroquine, reference compound], the IC50 in the assay with TLR7/8 [1] (setting [3]) is 1950 nM; in the assay with TLR7/8 [1] (setting [4]) it was 598 nM; in the assay on TLR7/8 [1] (setting [5]), 392 nM; in the assay with TLR7/8 [1] (read-out: IC50 IFN-α, ligand R848, individual donors), 1250 nM and 2570 nM and 2030 nM; in the assay with TLR7/8 [1] (read-out: IC50 IFN-α, ligand RNA40-DOTAP, individual donors), 490 nM and 410 nM and 990 nM and 502 nM; in the assay on TLR7/8 [1] (read-out: IC50 IFN-α, ligand SL4-Ig, individual donors 1-6), 459 nM and 324 nM. Moreover, the IC50 in the assay on TLR7/8 [2] (read-out: IC50 IL-6, ligand R848, individual donors) was over 10000 nM; in the assay with TLR7/8 [2] (read-out: IC50 IL-6, ligand RNA40-DOTAP, individual donors), 10000 nM and 10800 nM and > 10000 nM and 15500 nM and 18000 nM and 6100 nM; in the assay on TLR7/8 [2] (read-out: IC50 IL-6, ligand SL4-Ig, individual donors 1-6), 5200 nM and 3700 nM and 3200 nM and 3600 nM and 4300 nM and 4600 nM; in the assay on TLR7/8 [2] (setting [6]), over 10000 nM; in the assay with TLR7/8 [2] (setting [7]) it was 12100 nM; in the assay on TLR7/8 [2] (setting [8]), 4100 nM.
